Assay results: ChEMBL document CHEMBL4196003, “The selectivity and bioavailability improvement of novel oral anticoagulants: An overview” (Eur J Med Chem, 2018)
pIC50, pKi: −log10 of the molar value. ≈ marks a conversion by molar mass, not a printed value.

How the values were obtained:
Plasma = type: functional, Homo sapiens
Description: Anticoagulant activity in human plasma assessed as concentration required to double activated partial thromboplastin time

Coagulation factor X [1] = biological target: T1, Coagulation factor X (Homo sapiens, UniProt P00742)
Trypsin [2] = biological target: T2, Trypsin (Homo sapiens, UniProt P07477+P07478+P35030); type: protein assay
Description: Inhibition of trypsin (unknown origin)

in vivo = details: dog, po, 1 mg/kg
Description: Half life in dog at 1 mg/kg, po

Trypsin [3] = biological target: T2, Trypsin; type: protein assay; remark: listed apart in the source
Description: Inhibition of human trypsin assessed as release of p-nitroanilide from chromogenic substrate

physchem = details: buffer, pH 7.4
Description: Aqueous solubility at pH 7.4

Prothrombin [4] = biological target: T3, Prothrombin (Homo sapiens, UniProt P00734)
Description: Binding affinity to thrombin (unknown origin)

Prothrombin [5] = biological target: T3, Prothrombin; remark: listed apart in the source
[6] = biological target: T4, Coagulation factor VII/tissue factor (Homo sapiens, UniProt P08709); type: protein-complex assay
T4 sequence (P08709 61-212 limits assumed): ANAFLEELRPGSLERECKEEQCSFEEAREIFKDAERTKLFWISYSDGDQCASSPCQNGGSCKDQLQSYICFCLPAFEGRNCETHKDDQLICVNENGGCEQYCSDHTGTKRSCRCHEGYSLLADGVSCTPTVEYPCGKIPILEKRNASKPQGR
T4 sequence (P08709 213-466 limits assumed): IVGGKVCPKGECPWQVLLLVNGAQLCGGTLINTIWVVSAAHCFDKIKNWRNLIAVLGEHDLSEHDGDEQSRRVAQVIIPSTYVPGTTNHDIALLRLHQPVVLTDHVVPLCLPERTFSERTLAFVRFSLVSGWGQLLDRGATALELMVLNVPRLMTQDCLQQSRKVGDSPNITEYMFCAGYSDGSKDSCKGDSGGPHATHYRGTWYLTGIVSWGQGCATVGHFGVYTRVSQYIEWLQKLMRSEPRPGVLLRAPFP
T4 sequence (P13726 33-295 partner limits assumed): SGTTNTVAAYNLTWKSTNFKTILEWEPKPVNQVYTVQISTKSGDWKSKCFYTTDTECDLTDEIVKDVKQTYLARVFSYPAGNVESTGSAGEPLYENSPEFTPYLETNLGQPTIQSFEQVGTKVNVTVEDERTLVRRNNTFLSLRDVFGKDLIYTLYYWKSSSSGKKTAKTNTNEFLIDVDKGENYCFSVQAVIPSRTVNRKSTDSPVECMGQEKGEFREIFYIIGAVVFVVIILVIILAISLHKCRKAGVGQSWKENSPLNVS

Coagulation factor X [7] = biological target: T1, Coagulation factor X; remark: listed apart in the source
[8] = biological target: T4, Coagulation factor VII/tissue factor; type: protein-complex assay; remark: listed apart in the source
Prothrombin [9] = biological target: T3, Prothrombin; remark: listed apart in the source
[10] = cynomolgus monkey, plasma, iv, 0.4 mg/kg
Description: Plasma concentration in cynomolgus monkey at 400 ug/kg/min, iv

[11] = cynomolgus monkey, plasma, iv, 0.06 mg/kg
Description: Plasma concentration in cynomolgus monkey at 60 ug/kg/min, iv

T1 sequence (P00742 41-179 limits assumed): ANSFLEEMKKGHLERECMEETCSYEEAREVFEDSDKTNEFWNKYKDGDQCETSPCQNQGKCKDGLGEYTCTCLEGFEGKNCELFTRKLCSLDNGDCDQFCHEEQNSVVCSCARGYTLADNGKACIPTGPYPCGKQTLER
T1 sequence (P00742 235-488 limits assumed): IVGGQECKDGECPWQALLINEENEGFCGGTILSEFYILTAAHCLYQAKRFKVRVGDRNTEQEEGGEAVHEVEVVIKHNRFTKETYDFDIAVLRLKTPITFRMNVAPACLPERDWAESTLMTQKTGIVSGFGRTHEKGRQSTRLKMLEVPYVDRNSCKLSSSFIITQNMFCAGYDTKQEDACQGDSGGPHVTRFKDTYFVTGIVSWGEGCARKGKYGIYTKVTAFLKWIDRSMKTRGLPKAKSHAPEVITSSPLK

`O=C(Cn1c(Cl)cnc(NCC(F)(F)c2cccc[n+]2[O-])c1=O)NCc1cc(Cl)ccc1-n1cnnn1` showed a 2aPTT (Plasma) of 130 nM.

Work on `O=C(Cn1c(Cl)cnc(NCC(F)(F)c2ccccn2)c1=O)NCc1cc(Cl)ccc1-n1cncn1` yielded a 2aPTT (Plasma) of 170 nM.

In the case of `CC(C)Nc1ccc(-c2cccc(N)c2)c(CC(=O)NCc2ccc(C(=N)N)cc2)c1F`, the pIC50 (Coagulation factor X [1]) was < 4.52.

Compound `Cc1cnc(NCC(F)(F)c2ccccn2)c(=O)n1CC(=O)NCc1ncccc1F` has a Ki (Trypsin [2]) of 252 µM and a 2aPTT (Plasma) of 670 nM.

Compound `N#Cc1cnc(NCC(F)(F)c2ccccn2)c(=O)n1CC(=O)NCc1ncccc1F` has a half-life (in vivo) of 6.6 to 9.7 h, a Ki (Trypsin [2]) of 213 µM and a 2aPTT (Plasma) of 410 nM.

For `Cc1nc(N)ccc1CNC(=O)Cn1c(C)cnc(NCC(F)(F)c2ccccn2)c1=O`, the Ki (Trypsin [2]) was 0.8 µM and the 2aPTT (Plasma) was 200 nM.

For `Cc1cnc(NCCc2ccccc2)c(=O)n1CC(=O)NCc1cc2cc[nH]c2cn1`, the Ki (Trypsin [3]) was 95 µM.

`O=C(Cn1c(Cl)cnc(NCC(F)(F)c2cccc[n+]2[O-])c1=O)NCc1ccccc1F` showed a 2aPTT (Plasma) of 400 nM.

For `O=C(Cn1c(Cl)cnc(NCC(F)(F)c2cccc[n+]2[O-])c1=O)NCc1ncccc1Cl`, the 2aPTT (Plasma) was 470 nM.

Work on `O=C(Cn1c(Cl)cnc(NCC(F)(F)c2cccc[n+]2[O-])c1=O)NCc1ncccc1F` yielded a solubility (physchem) of 0.044 mg/mL (≈ 93.9 µM) and a 2aPTT (Plasma) of 540 nM.

In the case of `O=C(Cn1c(Cl)cnc(NCC(F)(F)c2ccccn2)c1=O)NCc1cc(Cl)ccc1-n1cnnn1`, the 2aPTT (Plasma) was 180 nM and the pKi (Prothrombin [4]) was 11.82 to 11.85.

Compound `O=C(Cn1c(Cl)cnc(NCC(F)(F)c2cccc[n+]2[O-])c1=O)NCc1cc(Cl)ccc1-n1cncn1` has a 2aPTT (Plasma) of 200 nM.

In the case of `Cc1cnc(NCCc2ccccn2)c(=O)n1CC(=O)NCc1cc2cc[nH]c2cn1`, the Ki (Trypsin [3]) was 200 µM.

`Cc1cnc(NCCc2ccccn2)c(=O)n1CC(=O)NCc1ccc2[nH]ccc2c1` showed a Ki (Trypsin [3]) of 290 µM.

`N=C(N)NCCC[C@H](NC(=O)[C@H](Cc1cccnc1)NC(=O)[C@H](Cc1ccccc1)NS(=O)(=O)c1ccccc1)C(=O)c1nccs1` showed a pIC50 (Prothrombin [5]) of 4.00 and a pIC50 [6] of 6.70.

`O=c1oc(-c2ccccc2F)nc2cnccc12` gave a pIC50 (Coagulation factor X [7]) of 4.05 and a pIC50 [8] of 5.59.

In the case of `Cc1ccccc1-c1nc2c(cnn2C)c(=O)o1`, the pIC50 (Coagulation factor X [7]) was < 3.70, the pIC50 [8] was 4.74 and the pIC50 (Prothrombin [9]) was 3.89.

With `O=c1oc(-c2ccccc2F)nc2ncccc12` the pIC50 (Coagulation factor X [7]) was 4.49, the pIC50 [8] was 5.55 and the pIC50 (Prothrombin [9]) was 4.84.

Work on `O=c1oc(-c2c(F)cccc2F)nc2cc(C(F)(F)F)ccc12` yielded a pIC50 (Coagulation factor X [7]) of 3.76, a pIC50 [8] of 5.85 and a pIC50 (Prothrombin [9]) of 3.87.

For `O=c1oc(-c2c(F)cccc2F)nc2cnccc12`, the pIC50 (Coagulation factor X [7]) was < 3.70, the pIC50 [8] was 5.89 and the pIC50 (Prothrombin [9]) was < 3.70.

For `O=c1oc(-c2ccccc2F)nc2nccnc12`, the pIC50 [8] was < 3.70.

In the case of `O=c1oc(-c2c(F)cccc2F)nc2cc([N+](=O)[O-])ccc12`, the pIC50 (Coagulation factor X [7]) was 3.95, the pIC50 [8] was 6.09 and the pIC50 (Prothrombin [9]) was < 3.70.

For `CCSc1ncc2c(=O)oc(-c3ccccc3F)nc2n1`, the pIC50 (Coagulation factor X [7]) was < 3.70, the pIC50 [8] was 4.82 and the pIC50 (Prothrombin [9]) was < 3.70.

For `Cc1cnc(NCCc2ccccc2)c(=O)n1CC(=O)NCc1ccc2[nH]ccc2c1`, the Ki (Trypsin [3]) was > 100 µM.

With `CC(C)Nc1nc(Cl)c(-c2cc(N)cc(C(=O)O)c2)n(CC(=O)NCc2ccc(C(=N)N)cc2)c1=O` the Cp [10] was 107 µg/mL and the pIC50 (Coagulation factor X [1]) was < 4.00.

In the case of `O=C(Cn1c(Cl)cnc(NCC(F)(F)c2ccccn2)c1=O)NCc1ncccc1F` [DPOC-4088], the half-life (in vivo) was 6.6 to 9.7 h, the solubility (physchem) was 0.011 mg/mL (≈ 24.3 µM) and the Ki (Trypsin [2]) was 202 µM. The 2aPTT (Plasma) was 780 nM.

Compound `Cc1nc(N)ccc1CNC(=O)Cn1c(C)ccc(NS(=O)(=O)Cc2ccccc2)c1=O` [L-374087] has a Ki (Trypsin [3]) of 3.2 µM.

`Cc1nc(N)ccc1CNC(=O)Cn1c(C)cnc(NCCc2ccccc2)c1=O` [L-375378] showed a Cp [11] of 3 µg/mL.
